Results taken from patent US20110046131A1, “PURINES AS PKC-THETA INHIBITORS” (N.V. Organon and Pharmacopeia, LLC, priority 2006, published 2011).

Tests used:
[1] = target: T1, PKC delta (Homo sapiens, UniProt Q05655); assay: Ki Pan Vera (PV) potency for PKC delta; type: biochemical; settings: Ki Pan Vera (PV) of PKC delta
T1 construct: purchased Pan Vera
Procedure: [The source words this procedure for another target and reports this target under the same test.] (§1) For Ki Pan Vera (PV) of PKCθ, entries identified with “A” had values below 100 nM; entries identified with “B” had values below 1 μM; and entries identified with “C” had values below 10 μM.

[2] = target: T2, PKC alpha (Homo sapiens, UniProt P17252); assay: Ki Pan Vera (PV) potency for PKC alpha; type: biochemical; settings: Ki Pan Vera (PV) of PKC alpha
T2 construct: purchased Pan Vera
Procedure: [The source words this procedure for another target and reports this target under the same test.] as §1

[3] = system: anti-CD3 induced interleukin-2 (IL-2) production; assay: anti-CD3 induced interleukin-2 (IL-2) production in mice; type: in vivo
Procedure: The compounds of the invention were also tested in vivo.

[4] = target: T3, SGK kinase (Homo sapiens, UniProt O00141); assay: IC50 for SGK kinase (selectivity); type: biochemical
T3 sequence (O00141 1-431): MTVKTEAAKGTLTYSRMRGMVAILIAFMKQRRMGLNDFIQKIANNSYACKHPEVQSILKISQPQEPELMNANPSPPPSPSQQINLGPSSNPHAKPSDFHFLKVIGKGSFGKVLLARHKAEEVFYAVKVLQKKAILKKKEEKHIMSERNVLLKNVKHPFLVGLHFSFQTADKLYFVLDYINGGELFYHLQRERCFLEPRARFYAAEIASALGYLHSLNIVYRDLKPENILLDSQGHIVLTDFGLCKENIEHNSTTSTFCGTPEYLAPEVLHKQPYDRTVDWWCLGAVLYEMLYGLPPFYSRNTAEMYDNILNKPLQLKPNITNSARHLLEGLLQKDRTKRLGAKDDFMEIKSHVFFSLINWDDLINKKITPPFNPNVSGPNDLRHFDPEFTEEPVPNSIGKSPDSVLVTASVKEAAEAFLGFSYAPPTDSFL
Procedure: Entries identified with “1” had values above 250 nM; entries identified with “2” had values above 1 μM; entries identified with “3” had values above 10 μM.

[5] = target: T4, PKCθ (Homo sapiens, UniProt Q04759); assay: Ki Pan Vera (PV) potency for PKCθ; type: biochemical; settings: Ki Pan Vera (PV) of PKCθ
T4 construct: purchased Pan Vera
Procedure: as §1

T4 sequence (Q04759 whole entry): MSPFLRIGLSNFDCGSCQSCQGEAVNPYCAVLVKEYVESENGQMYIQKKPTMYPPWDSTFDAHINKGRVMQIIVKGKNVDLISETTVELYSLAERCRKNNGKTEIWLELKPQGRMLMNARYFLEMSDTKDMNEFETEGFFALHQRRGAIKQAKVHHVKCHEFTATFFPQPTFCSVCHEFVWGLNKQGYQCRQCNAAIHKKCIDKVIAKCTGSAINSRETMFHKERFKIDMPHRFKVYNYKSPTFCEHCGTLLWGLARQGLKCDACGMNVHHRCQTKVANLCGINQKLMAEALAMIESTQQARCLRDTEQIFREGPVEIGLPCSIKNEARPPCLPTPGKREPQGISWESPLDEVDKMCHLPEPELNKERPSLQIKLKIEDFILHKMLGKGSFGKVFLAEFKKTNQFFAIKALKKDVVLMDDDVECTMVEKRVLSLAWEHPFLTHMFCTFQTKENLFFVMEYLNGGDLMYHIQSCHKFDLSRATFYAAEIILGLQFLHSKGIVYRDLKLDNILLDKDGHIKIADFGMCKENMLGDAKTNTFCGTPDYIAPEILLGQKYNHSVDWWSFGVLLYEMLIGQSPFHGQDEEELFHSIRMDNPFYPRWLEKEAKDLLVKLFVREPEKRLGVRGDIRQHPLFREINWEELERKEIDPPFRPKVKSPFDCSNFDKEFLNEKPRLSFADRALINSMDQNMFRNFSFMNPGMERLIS
T1 sequence (Q05655 whole entry): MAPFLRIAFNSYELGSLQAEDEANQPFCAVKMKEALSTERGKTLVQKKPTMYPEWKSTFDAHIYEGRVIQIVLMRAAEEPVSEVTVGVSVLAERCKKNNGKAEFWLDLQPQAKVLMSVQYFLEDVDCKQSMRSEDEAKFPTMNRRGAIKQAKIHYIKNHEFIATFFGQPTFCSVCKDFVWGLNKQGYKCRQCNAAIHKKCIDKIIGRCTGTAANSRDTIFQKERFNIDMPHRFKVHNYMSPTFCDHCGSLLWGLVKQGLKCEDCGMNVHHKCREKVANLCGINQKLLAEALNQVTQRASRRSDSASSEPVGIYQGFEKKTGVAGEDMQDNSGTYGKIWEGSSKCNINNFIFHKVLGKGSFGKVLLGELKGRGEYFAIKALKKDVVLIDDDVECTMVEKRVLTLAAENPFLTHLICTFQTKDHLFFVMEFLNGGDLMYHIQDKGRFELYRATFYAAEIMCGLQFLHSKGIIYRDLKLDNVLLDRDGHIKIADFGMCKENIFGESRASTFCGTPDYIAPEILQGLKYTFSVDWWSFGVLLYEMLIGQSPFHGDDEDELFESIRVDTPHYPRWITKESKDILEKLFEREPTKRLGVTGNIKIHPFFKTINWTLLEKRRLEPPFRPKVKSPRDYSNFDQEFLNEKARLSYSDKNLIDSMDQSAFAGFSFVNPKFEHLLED

Compound	Ki [1]	Ki [2]	IC50-SGK1 [4]	Ki [5]	% inhibition of IL-2 production ([3]; subcutaneous dose 30 mg/kg)	% inhibition of IL-2 production ([3]; subcutaneous dose 1 mg/kg)
Fc1ccc(CNc2ncc3nc(-c4c(Cl)cccc4Cl)n(C[C@@H]4CCCNC4)c3n2)cc1F [Compound 101]	> 250 nM	> 1000 nM	Inactive	< 100 nM	58%	
C=CC[C@@H]1/C=C(\C)C[C@H](C)C[C@H](OC)[C@H]2O[C@@](O)(C(=O)C(=O)N3CCCC[C@H]3C(=O)O[C@H](/C(C)=C/[C@@H]3CC[C@@H](O)[C@H](OC)C3)[C@H](C)[C@@H](O)CC1=O)[C@H](C)C[C@@H]2OC [FK506, reference compound]						87%
Fc1ccc(CNc2ncc3nc(-c4c(Cl)cccc4Cl)n(C[C@@H]4CCCNC4)c3n2)cc1Cl [Compound 100]	> 250 nM	> 1000 nM	Inactive	< 100 nM	38%	
Fc1ccc(CNc2ncc3nc(-c4c(F)cccc4Cl)n(C[C@@H]4CCCNC4)c3n2)cc1F [Compound 113, N-(3,4-difluorobenzyl)-8-(2-chloro-6-fluorophenyl)-9-((R)-piperidin-3-ylmethyl)-9H-purin-2-amine]	> 250 nM	> 1000 nM		< 100 nM	38%	
Fc1ccc(CNc2ncc3nc(-c4c(Cl)cccc4Cl)n(C[C@H]4CCNC4)c3n2)cc1Cl [Compound 120]	> 1000 nM	> 1000 nM	Inactive	< 1000 nM	35%	

Second part, led by results:

Ki [1]	Ki [2]	IC50-SGK1 [4]	Ki [5]	Compound	% inhibition of IL-2 production ([3]; subcutaneous dose 30 mg/kg)	% inhibition of IL-2 production ([3]; subcutaneous dose 1 mg/kg)
> 1000 nM	> 1000 nM	Inactive	< 1000 nM	Fc1cccc(CNc2ncc3nc(-c4c(Cl)cccc4Cl)n(C[C@H]4CCNC4)c3n2)c1 [Compound 127]		
> 1000 nM	> 1000 nM	Inactive	< 1000 nM	Fc1cccc(CNc2ncc3nc(-c4c(F)cccc4Cl)n(C[C@H]4CCNC4)c3n2)c1 [Compound 205]		
> 1000 nM	> 1000 nM	Inactive	< 100 nM	Fc1ccc(CNc2ncc3nc(-c4c(Cl)cccc4Cl)n(C[C@H]4CCNC4)c3n2)cc1F [Compound 121]		
